What was measured:
Assay in all cases: relative viability (nuclei count vs DMSO), 5 days (fraction); higher = more cells survive
AZD5582 + Navitoclax = compound: C[C@@H](C(=O)N[C@@H](C1CCCCC1)C(=O)N2CCC[C@H]2C(=O)N[C@@H]3[C@@H](CC4=CC=CC=C34)OCC#CC#CCO[C@@H]5CC6=CC=CC=C6[C@@H]5NC(=O)[C@@H]7CCCN7C(=O)[C@H](C8CCCCC8)NC(=O)[C@H](C)NC)NC [AZD5582] + CC1(C)CCC(c2ccc(Cl)cc2)=C(CN2CCN(c3ccc(C(=O)NS(=O)(=O)c4ccc(N[C@H](CCN5CCOCC5)CSc5ccccc5)c(S(=O)(=O)C(F)(F)F)c4)cc3)CC2)C1 [Navitoclax] (partner 0.5 µM)
How it was run: (§1)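 Cells from lung cancer lines were seeded into 1536-well plates and, one day later, dosed by pin tool. Treatments were either a single drug or a fixed dose of an anchor drug with five library-drug doses (not always all listed) in √10 steps. After 5 days, nuclei were stained in a one-step fixation (final 0.05% Triton X-100, 1% formaldehyde, 1 ug/ml Hoechst) and counted on 4× images, and relative viability is the treated-to-vehicle nuclei ratio, as the median of duplicate plates.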

AZD5582 + Phenformin = compound: C[C@@H](C(=O)N[C@@H](C1CCCCC1)C(=O)N2CCC[C@H]2C(=O)N[C@@H]3[C@@H](CC4=CC=CC=C34)OCC#CC#CCO[C@@H]5CC6=CC=CC=C6[C@@H]5NC(=O)[C@@H]7CCCN7C(=O)[C@H](C8CCCCC8)NC(=O)[C@H](C)NC)NC [AZD5582] + N=C(N)NC(=N)NCCc1ccccc1 [Phenformin] (partner 250 µM)
How it was run: as §1

[1] = compound: Cn1nnc2c(C(N)=O)ncn2c1=O [Temozolomide] + CCNC(=O)c1noc(-c2cc(C(C)C)c(O)cc2O)c1-c1ccc(CN2CCOCC2)cc1 [Luminespib] (partner 0.01 µM)
How it was run: as §1

Temozolomide + Alpelisib = compound: Cn1nnc2c(C(N)=O)ncn2c1=O [Temozolomide] + Cc1nc(NC(=O)N2CCC[C@H]2C(N)=O)sc1-c1ccnc(C(C)(C)C(F)(F)F)c1 [Alpelisib] (partner 2 µM)
How it was run: as §1

Cell Line	relative viability (AZD5582 + Navitoclax; first compound 0.001581 µM)	relative viability (AZD5582 + Navitoclax; first compound 0.005 µM)	relative viability (AZD5582 + Navitoclax; first compound 0.01581 µM)	relative viability (AZD5582 + Navitoclax; first compound 0.05 µM)	relative viability (AZD5582 + Phenformin; first compound 0.001581 µM)	relative viability (AZD5582 + Phenformin; first compound 0.005 µM)	relative viability (AZD5582 + Phenformin; first compound 0.05 µM)	relative viability ([1]; first compound 0.6325 µM)	relative viability ([1]; first compound 2 µM)	relative viability ([1]; first compound 6.325 µM)	relative viability ([1]; first compound 20 µM)	relative viability (Temozolomide + Alpelisib; first compound 0.6325 µM)	relative viability (Temozolomide + Alpelisib; first compound 2 µM)	relative viability (Temozolomide + Alpelisib; first compound 6.325 µM)	relative viability (Temozolomide + Alpelisib; first compound 20 µM)	relative viability ([1]; first compound 0.2 µM)	relative viability (Temozolomide + Alpelisib; first compound 0.2 µM)	relative viability (AZD5582 + Phenformin; first compound 0.01581 µM)
NCI-H322M	1.15	1.32	1.14	1.4	0.776	0.996	0.872	0.935	0.968	0.786	0.712	0.81	0.803	0.747	0.609	–	–	–
NCI-H441	0.639	0.543	0.453	0.518	0.621	0.799	0.674	0.515	0.331	0.306	0.368	0.804	0.901	0.743	0.566	0.333	0.881	–
NCI-H460	1.08	1.03	1.06	1.03	0.485	0.524	0.611	0.0362	0.0277	0.0344	0.0293	0.526	0.51	0.479	0.461	0.0394	0.58	0.487
NCI-H520	1.07	1.15	1.1	1.15	0.451	0.539	0.53	0.216	0.234	0.222	0.21	1.12	1.05	0.893	1.01	0.216	1.01	0.528
NCI-H596	0.811	0.581	1.16	0.332	–	–	0.217	1.15	0.948	0.84	1.18	0.494	0.567	0.48	0.482	1.15	0.582	0.764
NCI-H647	1.02	1.09	0.919	1.27	0.47	0.504	0.459	0.174	0.197	0.114	0.0944	1.21	1.16	0.866	0.238	0.17	1.43	0.456
NCI-H727	0.409	0.426	0.366	0.483	0.518	1.28	0.673	0.397	0.299	0.37	0.325	0.511	0.533	0.675	0.504	0.239	0.655	0.632
NCI-H838	1.09	1.2	1.05	1.18	0.551	0.703	0.594	0.346	0.35	0.301	0.393	1.06	1.1	0.968	1.02	0.357	1.1	–
NCI-H1355	0.926	0.951	0.954	1.01	0.416	0.426	0.387	0.726	0.764	0.684	0.641	0.943	0.842	0.815	0.803	0.814	0.834	0.381

— the supplement of paper PMC10307832
